Test results published in DBAASP.
≈ marks a conversion by molar mass, not a printed value.

What was measured:
Assay in all cases: ≥ marks a high value that may be exact or a test limit, other limits are often not marked, values filed in µg/mL are converted to µM
[1] = tested on: Escherichia coli DH5alpha
[2] = tested on: Pseudomonas aeruginosa NBRC 13275
[3] = tested on: Staphylococcus aureus NBRC 13276
[4] = tested on: Staphylococcus epidermidis NBRC 12298
[5] = tested on: Acinetobacter baumannii AL1851-ΔLpxA
[6] = tested on: Acinetobacter baumannii ATCC 19606
[7] = tested on: Acinetobacter baumannii Al1852-ΔLpxD
[8] = tested on: Citrobacter freundii DSM 30029
[9] = tested on: Escherichia coli DSM 1103
[10] = tested on: Klebsiella pneumoniae DSM 789
[11] = tested on: Pseudomonas aeruginosa DSM 1117
[12] = tested on: Salmonella enterica DSM 17058
Shigella sonnei DSM 5570 = tested on: Shigella sonnei DSM 5570
[13] = tested on: Staphylococcus aureus DSM 11729
[14] = tested on: Staphylococcus epidermidis DSM 28319
Escherichia coli K-12 = tested on: Escherichia coli K-12
[15] = tested on: Pseudomonas aeruginosa PA214
[16] = tested on: Pseudomonas aeruginosa PA330
[17] = tested on: Pseudomonas aeruginosa PAO1
[18] = tested on: Aeromonas hydrophila ATCC 35654
[19] = tested on: Escherichia coli ATCC 25922
[20] = tested on: Micrococcus luteus ATCC 49732
[21] = tested on: Staphylococcus aureus ATCC 25923
[22] = tested on: Candida albicans ATCC 24433
[23] = tested on: Candida parapsilosis ATCC 22019
Escherichia coli = tested on: Escherichia coli
Staphylococcus aureus = tested on: Staphylococcus aureus
[24] = tested on: Trichophyton rubrum ATCC 28189
[25] = tested on: Bacillus megaterium ATCC 10778
[26] = tested on: Bacillus subtilis ATCC 6633
Candida albicans MDM8 = tested on: Candida albicans MDM8
[27] = tested on: Candida tropicalis IOC 4560
[28] = tested on: Enterobacter cloacae beta-12
Escherichia coli SBS 363 = tested on: Escherichia coli SBS 363
Micrococcus luteus A270 = tested on: Micrococcus luteus A270
[29] = tested on: Pseudomonas aeruginosa NCIB 10421
[30] = tested on: Serratia marcescens ATCC 4112
[31] = tested on: Staphylococcus aureus ATCC 29213
Escherichia coli E416-17 = tested on: Escherichia coli E416-17
Escherichia coli E423-17 = tested on: Escherichia coli E423-17
[32] = tested on: Staphylococcus aureus M838-17
[33] = tested on: Staphylococcus aureus USA 300

**Q.** With `CC[C@H](C)[C@H](NC(=O)CN)C(=O)N[C@@H](CCCCN)C(=O)N[C@@H](CCCCN)C(=O)N[C@@H](Cc1ccccc1)C(=O)N[C@@H](CC(C)C)C(=O)N[C@@H](CCCCN)C(=O)N[C@@H](CO)C(=O)N[C@@H](C)C(=O)N[C@@H](CCCCN)C(=O)N[C@@H](CCCCN)C(=O)N[C@@H](Cc1ccccc1)C(=O)N[C@H](C(=O)N[C@@H](CCCCN)C(=O)N[C@@H](C)C(=O)N[C@@H](Cc1ccccc1)C(=O)N[C@@H](CCCCN)C(N)=O)C(C)C` [GIKKFLKSAKKFVKAFK] as the compound, how does the MIC [1] read?
**A.** 3.12 µM (≈ 6.15 µg/mL)

**Q.** What about the MIC [2] of the same compound?
**A.** 1.56 µM (≈ 3.07 µg/mL)

**Q.** And the MIC [3]?
**A.** 6.25 µM (≈ 12.3 µg/mL)

**Q.** What about the MIC [4] of the same compound?
**A.** 3.12 µM (≈ 6.15 µg/mL)

**Q.** How did the MIC [5] turn out when `CC[C@H](C)[C@H](NC(=O)[C@H](CC(=O)O)NC(=O)[C@H](Cc1c[nH]c2ccccc12)NC(=O)[C@H](CCCCN)NC(=O)[C@@H]1CCCN1C(=O)[C@H](CC(C)C)NC(=O)[C@H](CCSC)NC(=O)[C@H](Cc1ccc(O)cc1)NC(=O)[C@H](CC(C)C)NC(=O)[C@H](CC(N)=O)NC(=O)[C@@H](NC(=O)CN)[C@@H](C)O)C(=O)N1CCC[C@H]1C(N)=O` [GTNLYMLPKWDIP] was run?
**A.** 16 µM (≈ 24.7 µg/mL)

**Q.** What about the MIC [6] of the same compound?
**A.** 32 µM (≈ 49.5 µg/mL)

**Q.** And the MIC [7]?
**A.** ≥ 32 µM

**Q.** What about the MIC [8] of the same compound?
**A.** 4 µM (≈ 6.19 µg/mL)

**Q.** What about the MIC [9] of the same compound?
**A.** 8 µM (≈ 12.4 µg/mL)

**Q.** What about the MIC [10] of the same compound?
**A.** ≥ 32 µM

**Q.** What about the MIC [11] of the same compound?
**A.** 1 µM (≈ 1.55 µg/mL)

**Q.** What about the MIC [12] of the same compound?
**A.** 16 µM (≈ 24.7 µg/mL)

**Q.** What about the MIC (Shigella sonnei DSM 5570) of the same compound?
**A.** 2 µM (≈ 3.09 µg/mL)

**Q.** And the MIC [13]?
**A.** 16 µM (≈ 24.7 µg/mL)

**Q.** And the MIC [14]?
**A.** 0.5 µM (≈ 0.773 µg/mL)

**Q.** Which results are given for `CC(C)C[C@H](NC(=O)[C@H](C)NC(=O)[C@H](CCCCN)NC(=O)[C@H](Cc1ccccc1)NC(=O)[C@H](CC(C)C)NC(=O)[C@H](CCCCN)NC(=O)[C@H](C)NC(=O)[C@H](Cc1c[nH]c2ccccc12)NC(=O)[C@H](C)NC(=O)[C@H](CCCCN)NC(=O)[C@H](CC(C)C)NC(=O)[C@H](Cc1ccccc1)NC(=O)[C@H](CCCCN)NC(=O)[C@H](CCCCN)NC(=O)[C@H](CC(C)C)NC(=O)[C@H](C)NC(=O)[C@@H](N)CCCCN)C(N)=O` [KALKKFLKAWAKLFKAL]?
**A.** MIC (Escherichia coli K-12): 1.6 µM (≈ 3.21 µg/mL); MIC [15]: 3.1 µM (≈ 6.21 µg/mL); MIC [16]: 6.3 µM (≈ 12.6 µg/mL); MIC [17]: 3.1 µM (≈ 6.21 µg/mL)

**Q.** `CC[C@H](C)[C@H](NC(=O)[C@H](CC(C)C)NC(=O)[C@H](CCC(N)=O)NC(=O)[C@@H](NC(=O)[C@H](CCCN=C(N)N)NC(=O)[C@@H](NC(=O)[C@H](CS)NC(=O)[C@H](CCCCN)NC(=O)[C@@H](N)CCCN=C(N)N)C(C)C)C(C)C)C(=O)N[C@@H](CCCCN)C(=O)N[C@@H](CC(N)=O)C(=O)NCC(=O)N[C@@H](CCCCN)C(=O)N[C@@H](CCCCN)C(=O)N[C@H](C(=O)N[C@H](C(=O)N[C@@H](C)C(=O)N[C@@H](Cc1ccccc1)C(N)=O)[C@@H](C)O)[C@@H](C)CC` [RKCVRVQLIKNGKKITAF] was tested. Which MIC [18] did it give?
**A.** 8.4 µM (≈ 17.7 µg/mL)

**Q.** What about the MIC [19] of the same compound?
**A.** 8.4 µM (≈ 17.7 µg/mL)

**Q.** What about the MIC [20] of the same compound?
**A.** 7.2 µM (≈ 15.1 µg/mL)

**Q.** What about the MIC [21] of the same compound?
**A.** 7.2 µM (≈ 15.1 µg/mL)

**Q.** With `CC[C@H](C)[C@H](NC(=O)[C@H](CCCCN)NC(=O)[C@H](CCC(=O)O)NC(=O)[C@H](CO)NC(=O)[C@H](CCCN=C(N)N)NC(=O)[C@@H](N)CO)C(=O)N[C@H](C(=O)N[C@@H](Cc1cnc[nH]1)C(=O)N[C@@H](CCC(N)=O)C(=O)N[C@@H](CC(C)C)C(=O)N[C@@H](Cc1ccccc1)C(N)=O)C(C)C` [SRSEKIVHQLF] as the compound, how does the MIC [22] read?
**A.** ≥ 298 µM

**Q.** And the MIC [23]?
**A.** ≥ 298 µM

**Q.** And the MIC (Escherichia coli)?
**A.** > 298 µM

**Q.** And the MIC (Staphylococcus aureus)?
**A.** > 298 µM

**Q.** What about the MIC [24] of the same compound?
**A.** ≥ 298 µM

**Q.** For `CC[C@H](C)[C@H](NC(=O)CNC(=O)[C@H](CCC(=O)O)NC(=O)[C@H](Cc1c[nH]c2ccccc12)NC(=O)[C@@H](NC(=O)[C@H](CCCCN)NC(=O)CNC(=O)[C@H](CC(C)C)NC(=O)[C@@H](N)Cc1c[nH]c2ccccc12)[C@@H](C)CC)C(=O)N[C@@H](CCCCN)C(=O)N[C@@H](CO)C(=O)N[C@@H](CC(C)C)C(=O)N[C@@H](Cc1ccccc1)C(N)=O` [WLGKIWEGIKSLF], which MIC [25] is on record?
**A.** 0.78 µM (≈ 1.23 µg/mL)

**Q.** What about the MIC [26] of the same compound?
**A.** 0.78 µM (≈ 1.23 µg/mL)

**Q.** What about the MIC (Candida albicans MDM8) of the same compound?
**A.** 3.13 µM (≈ 4.93 µg/mL)

**Q.** And the MIC [27]?
**A.** 1.56 µM (≈ 2.46 µg/mL)

**Q.** What about the MIC [28] of the same compound?
**A.** 12.5 µM (≈ 19.7 µg/mL)

**Q.** And the MIC (Escherichia coli SBS 363)?
**A.** 1.56 µM (≈ 2.46 µg/mL)

**Q.** What about the MIC (Micrococcus luteus A270) of the same compound?
**A.** 0.78 µM (≈ 1.23 µg/mL)

**Q.** And the MIC [29]?
**A.** 12.5 µM (≈ 19.7 µg/mL)

**Q.** And the MIC [30]?
**A.** 0.78 µM (≈ 1.23 µg/mL)

**Q.** What about the MIC [31] of the same compound?
**A.** 1.6 µM (≈ 2.52 µg/mL)

**Q.** What does the source list for `CC(C)C[C@H](NC(=O)[C@H](Cc1c[nH]c2ccccc12)NC(=O)[C@H](Cc1c[nH]c2ccccc12)NC(=O)[C@@H](N)Cc1c[nH]c2ccccc12)C(=O)N[C@@H](CCCN=C(N)N)C(=O)N[C@@H](CCCN=C(N)N)C(=O)N[C@@H](CCCN=C(N)N)C(=O)N[C@@H](Cc1c[nH]c2ccccc12)C(=O)O` [WWWLRRRW]?
**A.** MIC [19]: 16 µM (≈ 21.5 µg/mL); MIC (Escherichia coli E416-17): 16 µM (≈ 21.5 µg/mL); MIC (Escherichia coli E423-17): ≥ 32 µM; MIC (Escherichia coli K-12): 16 µM (≈ 21.5 µg/mL); MIC [32]: 4 µM (≈ 5.38 µg/mL); MIC [33]: 4 µM (≈ 5.38 µg/mL)
